Read-outs that look alike come from different tables or passages of the source.
Experiments:
5-HT2A receptor [1] = target: T1, 5-HT2A receptor (Homo sapiens (Human), UniProt P28223); format: cell-based; conditions: Ca^2+ flux, HEK293
Experimental: (§1) Functional Assays at 5-HT2A, 5-HT2B, and 5-HT1A. Agonist activity at 5-HT2A, 5-HT2B, and 5-HT1A receptors was determined using a FLIPR Ca^2+ flux assay at WuXi AppTec (Hong Kong) Limited according to their standard protocols. Briefly, stably transfected cells expressing the receptor of interest (HEK293 for 5-HT2A and 5-HT2B; CHO cells for 5-HT1A) were grown and plated in a 384 well plate and incubated at 37° C. and 5% CO2 overnight. A solution of 250 mM probenecid in 1 mL FLIPR assay buffer was prepared fresh. This was combined with a fluorescent dye (Fluo-4 Direct™) to make a final assay concentration of 2.5 mM. […] The fluorescent dye was then added to the assay plate along with assay buffer to a final volume of 40 μL. The cell plate was incubated for 50 min at 37° C. and 5% CO2 and placed into the FLIPR Tetra along with the compound plate. 10p L of references and compounds were then transferred from the compound plate into the cell plate and the fluorescent signal was read.

5-HT2B receptor = 5-HT2B receptor (Homo sapiens (Human), UniProt P41595); test: FLIPR Ca^2+ flux agonist assay at 5-HT2B; format: cell-based; conditions: HEK293
Sequence of 5-HT2B receptor (P41595 whole entry, looked up): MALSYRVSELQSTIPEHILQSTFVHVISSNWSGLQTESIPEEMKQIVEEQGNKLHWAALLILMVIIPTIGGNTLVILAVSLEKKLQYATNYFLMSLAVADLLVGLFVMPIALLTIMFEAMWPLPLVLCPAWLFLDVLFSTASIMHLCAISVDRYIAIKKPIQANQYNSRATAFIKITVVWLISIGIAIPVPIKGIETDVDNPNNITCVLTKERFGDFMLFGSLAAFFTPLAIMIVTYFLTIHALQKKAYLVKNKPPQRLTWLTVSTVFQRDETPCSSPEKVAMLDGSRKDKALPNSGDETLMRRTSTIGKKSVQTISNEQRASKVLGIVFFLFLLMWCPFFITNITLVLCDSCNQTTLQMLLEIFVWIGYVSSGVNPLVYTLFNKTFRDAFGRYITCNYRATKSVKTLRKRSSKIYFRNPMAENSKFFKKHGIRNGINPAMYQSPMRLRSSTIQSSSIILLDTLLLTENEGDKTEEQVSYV
Experimental: as §1

human 5-HT2C receptor = human 5-HT2C receptor (Homo sapiens (Human), UniProt P28335); format: cell-based
Sequence of human 5-HT2C receptor (P28335 33-458 limits assumed): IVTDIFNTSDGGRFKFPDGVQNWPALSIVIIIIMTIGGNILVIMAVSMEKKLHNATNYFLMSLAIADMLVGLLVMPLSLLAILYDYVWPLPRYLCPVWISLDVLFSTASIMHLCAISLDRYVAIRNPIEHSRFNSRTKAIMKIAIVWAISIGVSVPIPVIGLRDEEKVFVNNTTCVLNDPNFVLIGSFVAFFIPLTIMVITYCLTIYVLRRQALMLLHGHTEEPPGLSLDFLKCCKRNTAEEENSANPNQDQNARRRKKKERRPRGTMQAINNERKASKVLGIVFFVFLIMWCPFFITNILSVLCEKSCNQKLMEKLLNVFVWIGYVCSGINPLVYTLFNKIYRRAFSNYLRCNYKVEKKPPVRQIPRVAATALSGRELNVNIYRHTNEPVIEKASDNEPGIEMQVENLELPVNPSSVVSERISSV

5-HT1A receptor = 5-HT1A receptor (Homo sapiens (Human), UniProt P08908); test: FLIPR Ca^2+ flux agonist assay at 5-HT1A; format: cell-based; conditions: CHO cells
Experimental: as §1

5-HT2A receptor [2] = target: T1, 5-HT2A receptor; format: cell-based; conditions: beta-arrestin recruitment
Experimental: The degree of arrestin bias varied substantially across the other compounds tested as well.
Arrestin Functional Assay at 5-HT2A. Recruitment of beta-arrestin was determined using a PathHunter assay at Eurofins DiscoverX (Fremont, CA) according to their standard protocols. PathHunter GPCR beta-arrestin assays take advantage of DiscoverX's proprietary Enzyme Fragment Complementation technology. The GPCR is fused in frame with a small enzyme donor fragment ProLink™ (PK) and co-expressed in cells stably expressing a fusion protein of beta-arrestin and the larger, N-terminal deletion mutant of beta-galactosidase. Activation of the GPCR (5-HT2A receptor in this case) stimulates binding of beta-arrestin to the PK-tagged GPCR and forces complementation of the two enzyme fragments, resulting in the formation of an active beta-galactosidase enzyme. This interaction leads to an increase in enzyme activity that can be measured using chemiluminescent PathHunter Detection Reagents. Briefly, PathHunter cells expressing 5-HT2A receptors were seeded in a volume of 20 μL into 384-well plates and incubated at 37° C. for the appropriate time prior to testing. […] Plates were then imaged on a microplate reader and the agonist activity was calculated using the following formula: % Activity=100%×(mean RLU of test sample−mean RLU of vehicle control)/(mean MAX control ligand−mean RLU of vehicle control), where RLU=relative light units.

[3] = Metabolic stability in human liver microsomes (HLM); format: in vitro ADME; conditions: for half-life at 1 μM: both sexes, human, pooled human liver microsomes, pH 7.4, NADPH
Text: HLM Stability. Pooled HLM from adult male and female donors (Corning 452117) were used.

[4] = Metabolic stability in mouse liver microsomes (MLM); format: in vitro ADME; conditions: NADPH; for half-life at 1 μM: mouse, pooled mouse liver microsomes, pH 7.4, MLM (CD-1)
Text: MLM Stability Pooled MLM from CD-1 mice (BIOIVT M00501) were used.

[5] = Metabolic stability in rat liver microsomes (RLM); format: in vitro ADME; conditions: for half-life at 1 μM: both sexes, rat, pooled rat liver microsomes, pH 7.4, NADPH
C57BL/6 mice = test: Mouse head twitch response (HTR) assay; format: in vivo; conditions: mouse HTR, SC; for # HTR at Most Efficacious Dose / Emax (95% CI): 20 min observation; for Emax (95% CI): curve fit
Experimental: Agonists of the 5-HT2A receptor are well known to induce this effect in rodents and the potency of this HTR is correlated with hallucinogenic potency in humans.
Animals. Adult male C57BL/6 mice, aged 6-8 weeks (body weight 20-25 g) were used in this experiment. Animals were housed under controlled temperatures and 12-hour light/dark cycles (lights on between 07:00-19:00 h), with ad libitum food and water. This study was carried out in strict accordance with the requirements of the Committee for the Purpose of Control and Supervision of Experiments on Animals (CPCSEA), India. All efforts were made to minimize suffering.
Drugs and Drug Administration. Compound 1 was synthesized as described above. It was administered subcutaneously (SC) dissolved in saline vehicle at a volume of 10 mL/kg. Five doses were tested, with n=6 animals/group. Doses were calculated on the basis of the freebase.
Procedure. Mice were administered one dose of the drug and immediately placed into a small open field for behavioral observation. Animals were observed continuously for 20 mins and the number of head twitches (HTs) were counted by an observer blind to the treatment condition.
Statistical Analysis. The data points shown are the mean±standard error of the mean (SEM). Analysis was performed using GraphPad Prism 6. Curves were fit using a non-linear gaussian distribution to calculate ED50 and Emax values.
Additional disclosed compounds were tested in the mouse head twitch response (HTR) assay according to the procedure described in Example 34. […] Lastly, compounds with much larger benzyl and phenethyl substituents on the amine nitrogen (e.g., 10 and 11) were low efficacy in this assay, consistent with their lower maximal efficacy in the arrestin functional assay (see Example 32).

Structure (SMILES) | 5-HT2A % Act @ Max Dose (5-HT2A receptor [1]) [%] | 5-HT2B % Act @ Max Dose (5-HT2B receptor) [%] | 5-HT2C % Act @ Max Dose (human 5-HT2C receptor; Ca^2+ flux) [%] | 5-HT1A % Act @ Max Dose (5-HT1A receptor) [%] | 5-HT2A Arrestin % Act @ Max Dose (5-HT2A receptor [2]) [%] | half-life at 1 μM [3] [min] | half-life at 1 μM [4] [min] | half-life at 1 μM [5] [min] | 5-HT2C % Act @ Max Dose (human 5-HT2C receptor) [%] | agonist type in the 5-HT2A arrestin recruitment assay, in words (5-HT2A receptor [2]) | Most Efficacious Dose (C57BL/6 mice) | # HTR at Most Efficacious Dose (C57BL/6 mice) | Emax (95% CI) (C57BL/6 mice) | Clint ([3]; 1 μM, NADPH) [µL/min/mg] | t1/2 ([3]; 1 μM, NADPH) [min] | Clint ([4]; MLM (CD-1), 1 μM) [µL/min/mg] | t1/2 ([4]; MLM (CD-1), 1 μM) [min] | Clint ([5]; 1 μM, NADPH) [µL/min/mg] | t1/2 ([5]; 1 μM, NADPH) [min]
CCN(CC)C(=O)[C@H]1C=C2c3cccc4[nH]cc(c34)C[C@H]2N(CCCF)C1 [Compound 2a, (6aR,9S)-N,N-diethyl-7-(3-fluoropropyl)-4,6,6a,7,8,9-hexahydroindolo[4,3-fg]quinoline-9-carboxamide] | 90.29 | 40.13 | 118.85 | 96.77 | 83.328 | 17 | 1.78 | 9.67 |  |  |  |  |  |  |  |  |  |  | 
CCCN1C[C@@H](C(=O)N[C@H](C)CC)C=C2c3cccc4[nH]cc(c34)C[C@H]21 [Compound 3a, (6aR,9S)-N-((R)-sec-butyl)-7-propyl-4,6,6a,7,8,9-hexahydroindolo[4,3-fg]quinoline-9-carboxamide] | 92.04 | 52.81 | 108.705 | 108.14 | 112.91 | 2.2 | 0.6 | 1.4 |  |  |  |  |  |  |  |  |  |  | 
CC[C@@H](C)NC(=O)[C@@H]1C=C2c3cccc4[nH]cc(c34)C[C@H]2N(CC)C1 [Compound 5] | 102.81 | 84.77 |  | 107.87 | 105.72 |  |  |  | 114.5 | full agonists | (0.32 mg/kg) | 17.667 | 15.22 | 62.3 | 22.2 | 170.4 | 8.1 | 72.0 | 19.3
CC[C@@H](C)NC(=O)[C@H]1C=C2c3cccc4[nH]cc(c34)C[C@H]2N(CC)C1 [Compound 5a, (6aR,9S)-N-((R)-sec-butyl)-7-ethyl-4,6,6a,7,8,9-hexahydroindolo[4,3-fg]quinoline-9-carboxamide] | 89.59 | 43.7 | 99.4405 | 111.65 | 62.444 | 5.5 | 1.7 | 3.1 |  |  |  |  |  |  |  |  |  |  | 
C=CCN1C[C@@H](C(=O)N[C@H](C)CC)C=C2c3cccc4[nH]cc(c34)C[C@H]21 [Compound 8a, (6aR,9S)-7-allyl-N-((R)-sec-butyl)-4,6,6a,7,8,9-hexahydroindolo[4,3-fg]quinoline-9-carboxamide] | 87.45 | 35.71 | 13.314 | 90.34 | 81.117 | 3.4 | 0.8 | 1.7 |  |  |  |  |  |  |  |  |  |  | 
CC[C@@H](C)NC(=O)[C@H]1C=C2c3cccc4[nH]cc(c34)C[C@H]2N(C)C1 [Int8a, (6aR,9S)-N-((R)-sec-butyl)-7-methyl-4,6,6a,7,8,9-hexahydroindolo[4,3-fg]quinoline-9-carboxamide] | 72.6 | 6.87 | 93.73 | 103.65 | 35.52 | 11.1 | 1.6 | 3.5 |  |  |  |  |  |  |  |  |  |  | 
C[C@H]1C[C@H](C)N1C(=O)[C@@H]1C=C2c3cccc4[nH]cc(c34)C[C@H]2N(C)C1 [Int11, ((2S,4S)-2,4-dimethylazetidin-1-yl)((6aR, 9R)-7-methyl-4,6,6a,7,8,9-hexahydroindolo[4,3-fg]quinolin-9-yl)methanone] | 110.03 | 38.15 |  | 89.9 | 49.269 | 25.7 | 13.9 | 54.9 |  | partial agonists | (0.1 mg/kg) | 10.667 | 10.93 |  |  |  |  |  | 
CCC(CC)NC(=O)[C@H]1C=C2c3cccc4[nH]cc(c34)C[C@H]2N(C)C1 [Int14a, (6aR,9S)-7-methyl-N-(pentan-3-yl)-4,6,6a,7,8,9-hexahydroindolo[4,3-fg]quinoline-9-carboxamide] | 32.98 | 1.86 | 119.28 | 70.27 | 44.321 | 3.35 | 1.7 | 1.8 |  |  |  |  |  |  |  |  |  |  | 
CCC[C@@H](C)NC(=O)[C@H]1C=C2c3cccc4[nH]cc(c34)C[C@H]2N(C)C1 [Int17a, (6aR,9S)-7-methyl-N-((R)-pentan-2-yl)-4,6,6a,7,8,9-hexahydroindolo[4,3-fg]quinoline-9-carboxamide] | 63.31 | 5.63 | 112.06 | 88.52 | 43.729 | 4.58 | 1.58 | 1.96 |  |  |  |  |  |  |  |  |  |  | 
